In PubChem BioAssay (NCI):
Values joined by “and” are separate entries in the source; they are usually repeats but may differ in a detail not shown here. Equal values may be shown once.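 Following 48 hours of exposure in 96-well plates, responses at five concentrations were used to interpolate endpoints linearly. Here, GI50 denotes the concentration required for 50% inhibition of growth. TGI: concentration producing complete growth inhibition.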

What was measured:
Assay in all cases: NCI-60 cell line screen, 48 h
ACHN renal = test system: ACHN renal
DMS 114 small cell lung = test system: DMS 114 small cell lung
DMS 273 small cell lung = test system: DMS 273 small cell lung
HCT-15 colon = test system: HCT-15 colon
HL-60(TB) leukemia = test system: HL-60(TB) leukemia
K-562 leukemia = test system: K-562 leukemia
KM20L2 colon = test system: KM20L2 colon
OVCAR-8 ovarian = test system: OVCAR-8 ovarian
SF-295 CNS = test system: SF-295 CNS
SK-MEL-5 melanoma = test system: SK-MEL-5 melanoma
PC-3 prostate = test system: PC-3 prostate
SNB-78 CNS = test system: SNB-78 CNS

SMILES	TGI (ACHN renal)	TGI (DMS 114 small cell lung)	TGI (DMS 273 small cell lung)	TGI (HCT-15 colon)	TGI (HL-60(TB) leukemia)	TGI (K-562 leukemia)	TGI (KM20L2 colon)	TGI (OVCAR-8 ovarian)	TGI (SF-295 CNS)	TGI (SK-MEL-5 melanoma)	GI50 (ACHN renal)	GI50 (HCT-15 colon)	GI50 (HL-60(TB) leukemia)	GI50 (K-562 leukemia)	GI50 (OVCAR-8 ovarian)	GI50 (PC-3 prostate)	TGI (PC-3 prostate)	GI50 (SF-295 CNS)	GI50 (SK-MEL-5 melanoma)	TGI (SNB-78 CNS)
CCOC(=O)C1C2CCC(C2)C1(CCl)C(=O)OCC (stereo not given)	> 100 µM	> 100 µM	> 100 µM	> 100 µM	> 100 µM	> 100 µM	> 100 µM	> 100 µM	> 100 µM	> 100 µM										
NNC(=O)CNC(=O)c1ccc(Cl)cc1Cl	> 100 µM	> 100 µM	> 100 µM	> 100 µM	> 100 µM	> 100 µM	> 100 µM	> 100 µM	> 100 µM	> 100 µM										
CC1SC2=NC3=C(c4ccccc4C3=O)C(c3ccc(Cl)cc3)N2C1=O (stereo not given)	> 100 µM	> 100 µM	> 100 µM	> 100 µM	> 100 µM	> 100 µM	> 100 µM	> 100 µM	> 100 µM	> 100 µM										
O=C(c1ccccc1)c1ccc(Oc2ccc([N+](=O)[O-])cc2[N+](=O)[O-])cc1	13.6 µM			> 100 µM	5.89 µM	> 100 µM		14.4 µM	8.51 µM	4.42 µM	3.72 µM	3.48 µM	2190 nM	2630 nM	3.39 µM	5.66 µM	> 100 µM	2620 nM	2020 nM	
COC(=O)C(C(=O)C(=O)Nc1nc(=S)[nH][nH]1)c1csc(-n2nc(-c3ccccc3)cc2-c2ccccc2)n1 (stereo not given)	> 100 µM		> 100 µM	> 100 µM	> 100 µM	> 100 µM	> 100 µM	> 100 µM												> 100 µM
C=CC(=O)NCc1cccc(Nc2ncc(Br)c(NCCCNC(=O)C3CCC3)n2)c1	12.5 µM and > 25 µM			12.5 µM and 13.2 µM	5.96 µM and > 25 µM	12.5 µM and > 25 µM		12.5 µM and > 25 µM	8.36 µM and 16.8 µM	5.35 µM and 5.81 µM	1.66 µM and 0.712 µM	2.27 µM and 2.65 µM	821 nM and 893 nM	2990 nM and 937 nM	1.99 µM and 1.72 µM	1.55 µM and 0.933 µM	12.5 µM and 7.04 µM	1100 nM and 1320 nM	2230 nM and 1870 nM	
O=[N+]([O-])c1ccccc1N/N=C\c1c[nH]c2ccccc12	> 67.3 µM			> 100 µM	> 100 µM	> 100 µM		29.4 µM	33 µM	> 100 µM	13.9 µM	5.68 µM	5560 nM	4530 nM	12 µM	4.25 µM	> 100 µM	9500 nM	71400 nM	
O=C1c2nsnc2C(=O)c2c(F)c(F)c(F)c(F)c21	1.2 µM			2 µM	2.73 µM	1.01 µM		72.7 µM	2.99 µM	2.52 µM	0.501 µM	0.495 µM	591 nM	238 nM	2.8 µM	1.51 µM	3.1 µM	1400 nM	1240 nM	
CC(=O)Nc1cc(N(CCOS(C)(=O)=O)CCOS(C)(=O)=O)ccc1N=O	> 100 µM	> 100 µM	> 100 µM	> 100 µM	> 100 µM	> 100 µM	> 100 µM	> 100 µM	> 100 µM	> 100 µM										
COc1ccc(C(=O)COC(=O)[C@H](C[Se][Se]C[C@H](NC(=O)c2ccc(Br)cc2F)C(=O)OCC(=O)c2ccc(OC)cc2)NC(=O)c2ccc(Br)cc2F)cc1	2.49 µM			2.99 µM	12.2 µM	> 55 µM		1.86 µM	0.61 µM	2.76 µM	0.884 µM	1.03 µM	2720 nM	3300 nM	0.513 µM	0.318 µM	1.41 µM	211 nM	596 nM	
C=CC(C1=CC(=O)C(OC)=CC1=O)c1ccccc1 (stereo not given)	27.4 µM			32 µM	6.72 µM	13.2 µM		58.7 µM	27.6 µM	30 µM							25.7 µM			
NC1CCC(Nc2nc(NCc3ccc(-c4cccs4)nc3)c3ncn(C4CCCC4)c3n2)CC1 (stereo not given)	1.01 µM			5.36 µM	0.0644 µM	0.777 µM		12.9 µM	0.699 µM	1.28 µM	0.276 µM	0.342 µM	20.6 nM	39.7 nM	0.0504 µM	0.0337 µM	1.04 µM	81.9 nM	280 nM	
C[C@H](Nc1ncnc2nc[nH]c12)c1cc2ccc(F)cc2nc1-c1ccccn1	> 100 µM			> 100 µM	> 100 µM	> 100 µM		> 100 µM	> 100 µM	> 100 µM	47.9 µM	> 100 µM	30300 nM	> 100000 nM	> 100 µM	25 µM	> 100 µM	18800 nM	91200 nM	
N#Cc1ccccc1NC(=O)C(=O)c1c(O)c2ccccc2oc1=O	> 100 µM			> 100 µM	> 100 µM	> 100 µM		> 100 µM	> 100 µM	> 100 µM							> 100 µM			
CCN1C(=O)N(CC)C2Nn3c(s/c(=C\c4ccccc4Br)c3=O)=NC21 (stereo not given)	> 100 µM			> 100 µM	3.19 µM	> 100 µM		7.85 µM	7.75 µM	5.64 µM	1.33 µM	1.48 µM	1280 nM	515 nM	1.61 µM	1.86 µM	> 100 µM	691 nM	1710 nM	
O=C(CN(/C=C/C(=O)C(F)(F)F)c1ccc(Cl)cc1)c1ccccc1	28.9 µM			38.7 µM	66.7 µM	> 100 µM		> 100 µM	41.4 µM	27.7 µM	13.7 µM	15.1 µM	17300 nM	2800 nM	44 µM	17 µM	35.3 µM	12100 nM	12100 nM	
Cc1ccc(-c2cc3c(SCC(=O)Nc4cc(C(F)(F)F)ccc4Cl)nccn3n2)cc1	> 100 µM			> 100 µM	> 100 µM	> 100 µM		> 100 µM	> 100 µM	> 100 µM	6.17 µM	> 100 µM	> 100000 nM	> 100000 nM	29.8 µM	> 100 µM	> 100 µM	> 100000 nM	> 100000 nM	
CC(/C(=N\Nc1ccccc1)c1ccc(O)cc1)C1C(=O)Oc2ccccc21 (stereo not given)	> 100 µM	> 100 µM	> 100 µM	> 100 µM	> 100 µM	> 100 µM	> 100 µM	> 100 µM	> 100 µM	> 100 µM										
Clc1ccc2c(c1)N(CCCN1CCCC1)c1ccccc1S2	17.9 µM			13.5 µM	16.8 µM	7.61 µM		23.4 µM	21.6 µM	3.32 µM	4.86 µM	3.72 µM	4340 nM	2770 nM	9.64 µM	4.38 µM	16.1 µM	6830 nM	1830 nM	
C[C@]12CC[C@H](O)C[C@H]1CC[C@@H]1[C@@H]2CC[C@]2(C)[C@@H](C3=CC(=O)OC3)[C@@H](O)C[C@]12O	1.82 µM			7.21 µM	3.45 µM	> 52.2 µM		14.6 µM	10.9 µM	3.2 µM							3.1 µM			
COC(=O)/C(=N\Nc1nc(=S)[nH]n1N)C(C#N)c1ccccc1 (stereo not given)	> 100 µM			> 100 µM	> 100 µM	> 100 µM	> 100 µM	> 100 µM		> 100 µM										> 100 µM
Cc1cc(O)ccc1C1=NN(c2ccc(S(C)(=O)=O)cc2)C(=O)CC1	> 100 µM			> 100 µM	48.4 µM	> 100 µM		> 100 µM	12.4 µM	> 100 µM	37.8 µM	7.91 µM	3520 nM	3740 nM	12.3 µM	14.8 µM	> 100 µM	2870 nM	5490 nM	
CS(=O)(=O)Nc1ccc(-c2cc(-c3ccccc3)cc(C(N)=O)c2N)cc1	> 25 µM			> 25 µM	> 25 µM	> 25 µM		> 25 µM	> 25 µM	> 25 µM	> 25 µM	> 22.2 µM	> 23400 nM	15800 nM	> 22.6 µM	14.2 µM	> 25 µM	24600 nM	15600 nM	
COc1cc(-c2nc3ccccc3s2)ccc1NC(=O)COc1ccc(Cl)cc1	> 100 µM			> 100 µM	> 100 µM	> 100 µM		46.6 µM	25.1 µM	> 100 µM	4.92 µM	> 100 µM	> 100000 nM	5350 nM	2.79 µM	3.51 µM	> 100 µM	3350 nM	8680 nM	
O=[N+]([O-])c1ccc(Sc2ncnc3nc[nH]c23)c2nonc12	16.1 µM			36.1 µM	6.03 µM	2.72 µM		28.9 µM	20.6 µM	22.3 µM	4.04 µM	10.5 µM	2800 nM	436 nM	7.23 µM	13.1 µM	30 µM	3870 nM	10200 nM	
